Here are results for one compound from PMC10647589, “Heterogeneous Cellular Response of Primary and Metastatic Human Gastric Adenocarcinoma Cell Lines to Magnoflorine and Its Additive Interaction with Docetaxel” (International Journal of Molecular Sciences, 2023).

One data set deals with ACC-201 human GC cells. The data set is described as follows: MTT assay (viability; isobolographic analysis). The settings on record: ACC-201, 72 h incubation, mean ± SEM. In kind it is cell-based. As for the experimental part:
(§1) The human GC cells ACC-201, AGS, MKN-74 and NCI-N87 were placed in 96-well plates and allowed to adhere overnight. On the following day, the growth medium was removed, and the cells were treated with a series of tested MGN and DCT dilutions (2.0–75 and 0.0004–0.0404 µg/mL, respectively) for 72 h at 37 °C. […] Subsequently, a solution of MTT (5 mg/mL) was added to each well, and the cells were further incubated for 3 h at 37 °C. Tetrazolium salt was reduced to violet formazan derivatives via the succinate dehydrogenase of metabolically active cells. Insoluble formazan compounds formed inside the cells were extracted with a sodium dodecyl sulfate buffer (10% SDS in 0.01 N HCl) overnight to achieve a quantitative assessment of the amount produced. The absorbance of the samples was measured at 570 nm using Infinite M200 Pro microplate reader (Tecan, Männedorf, Switzerland). Cell viability was presented as a percentage relative to the untreated control cells.
(§2) Interactions between MGN and DCT analyzed after 72 h in four different GC cell lines (ACC-201, AGS, MKN-74 and NCI-N87) were characterized by means of an isobolographic analysis in the MTT assay. The percentage inhibition of cell viability accompanied by the specific concentrations of the tested substances (MGN and DCT) were transferred to the MS Excel spreadsheet, and the data were computed using the log–probit method. Next, the concentration–response effect graphs for the tested drugs (MGN and DCT) were drawn, and the IC50 values for every tested drug were calculated. The cooperative effect of two concentration–response lines was tested for the MGN and DCT combination, as previously described. The calculations of IC50 values (±SEM) were computed with formulas originally derived from the log–probit method and adapted to the in vitro conditions, as described earlier. The concentration–response lines for MGN and DCT were not parallel, and thus, the isobolographic additivity was illustrated graphically as an area bounded by two (upper and lower) lines of additivity. From the experimentally denoted IC50 values for MGN and DCT in the MTT assay, median additive inhibitory concentrations (IC50add) for the mixture (at the fixed ratio of 1:1 of MGN and DCT) in various cell lines (ACC-201, AGS, MKN-74 and NCI-N87) were calculated, as described previously. More information on isobolographic analysis can be found in the literature.

For a further data set, the system named is AGS human GC cells. The data set can be described thus: MTT assay (viability; isobolographic analysis). In kind it is cell-based. As to conditions: 72 h incubation, mean ± SEM. As for the experimental part: as §1, §2
In general terms: Formazan colour is commonly taken as a measure of viable cells.

Another data set deals with NCI-N87 human GC cells. The data set is described as follows: MTT assay (viability; isobolographic analysis). The data set is classed as cell-based. As to conditions: NCI-N87, 72 h incubation, mean ± SEM. As to the method:
as §1, §2

The next data set concerns MKN-74 human GC cells. The data set is described as follows: MTT assay (viability; isobolographic analysis). As to conditions: MKN-74, 72 h incubation, mean ± SEM. In kind it is cell-based. As to the method: as §1, §2
The next data set concerns zebrafish larvae. The data set is described as follows: Locomotor activity assay in larval zebrafish. In kind it is in vivo. As to conditions: MGN 100, 175 or 250 µg/mL, after 95 h incubation. As for the experimental part: Locomotor activity was examined to determine whether chronic MGN exposure may induce neurotoxic effects in fish. Noldusapparatus (EthoVision XT, Wageningen, The Netherlands) was used for this purpose. After 95 h of incubation in different doses of MGN (100, 175 or 250 µg/mL), each larva was placed individually in the wells of a 48-well plate filled with 300 µL of the medium. After 15 min of habituation, larval activity was tracked in the light phase for a period of 30 min. The distance covered by each larva in millimeters (mm) was assessed.

For data set [1], the system named is zebrafish embryos and larvae. The data set can be described thus: Zebrafish embryo toxicity test (OECD test no. 236, modified). The data set is classed as in vivo. As to the method: At first, zebrafish embryos were screened and sorted one hour after fertilization. Only perfectly transparent and fertilized embryos were transferred to plastic well plates. […] Developing embryos were incubated in the MGN solutions until 96 hpf. The amounts of MGN absorbed by zebrafish were measured in 96 hpf-old larvae (n = 50 larvae/sample, three samples/dose) through the use of HPLC-MS. The larvae were first washed in medium prior to homogenization with the additive of acetonitrile:water mixture in equal proportions (50:50 v/v). The homogenate was centrifuged at 20,000 rpm for 20 min, and the supernatant was pipetted, filtered through a nylon syringe filter (nominal pore size of 0.1 µm diameter) and subjected to HPLC-MS analysis in the positive ionization mode.
The following phenotypic features were scored in larvae exposed to different doses of MGN: (I) hatchability at 72 and 96 hpf, (II) morphological anomalies at 96 hpf, and (III) escape response at 96 hpf. Morphological analysis included the presence/lack of swim bladder, body axis/shape, presence/lack of pericardial edema, jaw development, normal/necrotic yolk sac, presence/absence of hemorrhage and changes in pigmentation. For photographs, each larva was anaesthetized and mounted on a glass slide. To evaluate the muscle performance and function in MGN-incubated larvae, in a separate cohort of 96 hours-old larvae, we assessed escape response by touching the tail with the tip of a needle.

Data set [2] relates to human GC cells ACC-201, AGS, MKN-74 and NCI-N87. The data set can be described thus: BrdU incorporation assay. The settings on record: MGN 2–75 μg/mL, 72 h, four GC cell lines. The data set is classed as cell-based. As to the method:
The human GC cells ACC-201, AGS, MKN-74 and NCI-N87 were placed in 96-well plates and allowed to adhere overnight. On the following day, the growth medium was replaced with fresh medium, and the cells were exposed to a series of tested MGN dilutions (2.0–75 µg/mL) for 72 h. Cell proliferation was quantified according to the manufacturer’s instruction, Cell Proliferation ELISA, BrdU (colorimetric) (Biorbyt, Cambridge, UK). Briefly, BrdU reagent was added to the medium, followed by Fixative/Denaturing Solution for 30 min at room temperature. Incorporated BrdU in the place of thymidine in the cell’s DNA under division was detected using mouse monoclonal anti-BrdU for 1 h at room temperature, followed by horseradish peroxidase (HRP)-linked goat anti-mouse IgG secondary antibody and tetramethylbenzidine (a HRP substrate) for 30 min at room temperature. The absorbance was measured at 450 nm using Infinite M200 Pro microplate reader (Tecan, Männedorf, Switzerland). Results are presented as a percentage of BrdU incorporation vs. control cells (indicated as 100%).

Molecules are shown by their SMILES.

As usually defined, the IC50 is the concentration that inhibits the measured activity by half. On to `COc1ccc2c(c1O)-c1c(O)c(OC)cc3c1[C@H](C2)[N+](C)(C)CC3` [MGN, magnoflorine], for which the IC50 with ACC-201 human GC cells amounted to 15.8 ± 2.79 µg/mL; in the data set on AGS human GC cells, 17.2 ± 3.59 µg/mL; in the data set on NCI-N87 human GC cells it was 33.3 ± 5 µg/mL; in the data set on MKN-74 human GC cells, 34.8 ± 6.04 µg/mL. In addition, the “locomotor activity: distance travelled within 30 min vs control” value with zebrafish larvae was “No differences between the tested groups”. Besides, the Hatching rate in data set [1] (MGN 100 µg/mL, scored at 72 hpf) is listed as 100%; in data set [1] (MGN 100 µg/mL, scored at 96 hpf), 100%; in data set [1] (MGN 175 µg/mL, scored at 72 hpf), 100%; in data set [1] (MGN 175 µg/mL, scored at 96 hpf) it was 100%; in data set [1] (MGN 250 µg/mL, scored at 72 hpf) it was 52.77%; in data set [1] (MGN 250 µg/mL, scored at 96 hpf) it was 94.44%. For the same compound, the Hatching rate in data set [1] (MGN 500 µg/mL, scored at 72 hpf) worked out at 23.33%; in data set [1] (MGN 500 µg/mL, scored at 96 hpf) it was 86.66%. The “larvae with curved body axis” value in data set [1] (MGN 500 µg/mL, 96 hpf) is 43%. Also, the “larvae with delayed touch response” value in data set [1] (MGN 500 µg/mL, 96 hpf) is 70%. Further, the “larvae with heart edema” value in data set [1] (MGN 500 µg/mL, 96 hpf) was 40%. Besides, the “larvae with lack of swim bladder” value in data set [1] (MGN 500 µg/mL, 96 hpf) was determined as 93%. The “larvae with underdeveloped jaw” value in data set [1] (MGN 500 µg/mL, 96 hpf) turned out to be 90%. Moreover, the “larvae with yolk sac necrosis” value in data set [1] (MGN 500 µg/mL, 96 hpf) is 46%. Moreover, the “Hatching” value in data set [1] (MGN 750 µg/mL, up to 96 h) is “none of the larvae hatched”. Moreover, the “Survival” value in data set [1] (MGN 750 µg/mL, up to 96 h) is reported as “all survived in chorions”. The “concentration with no evidence of toxicity” value in data set [1] (developing zebrafish, chronic exposure from 1 hpf to 96 hpf) was “up to 250 µg/mL”. Also, the “morphological parameters scored” value in data set [1] (three lowest concentrations (100, 175, 250 µg/mL), 96 hpf) is “did not affect any of the parameters scored”. The “BrdU-labeled DNA (proliferation)” value in data set [2] was “dose-dependent decrease”.
